According to patent EP0259183A2, “Process for controlling the accuracy and precision of sensitivity assays” (LIFETRAC, priority 1986, dated 1988):

System: primary human tumor cells
Assay: Drug sensitivity assay of primary tumor cell cultures on cell-adhesive matrix, growth quantitated by optical density of crystal violet stained wells, IC90 from survival curves
Type: cell-based
Conditions: median of IC90 values over a large group of individuals' tumor cells (Figure 5); 5 days drug exposure, then 7 days further culture; 2,000 cells per well
Protocol: Biopsies of tumors were obtained from cancer patients during routine diagnostic or therapeutic procedures. The biopsies were transported to the laboratory.
The solid tumor biopsies were minced with scapels to 1 mm pieces. Fluid specimens were anticoagulated with 10 Units/ml of Heparin and the cells recovered by contrifugation. The tissue from either the solid or fluid specimens were disaggregated by overnight incubation with constant stirring with the enzyme cocktail consisting of collagenase (0.075%) and DNase (0.005%) in culture medium supplemented with 10% fetal bovine serum. […]
The tumor cell count is performed using a hemocytometer and a microscope fitted with a phase gradient inaging system so that living cells can be visualized. The number of viable tumor cells are counted at 400X magnification according to the following criteria: 1. unstained by the trypan blue dye; 2. large size (>15 microns); 3. large nucleous to cytoplasmic ratio; 4. prominant nucleoli; and 5. nil to moderate granularity. The number of cells in 1/9th the marked area of the hemocytometer meeting the above criteria are counted.
The cell concentration is calculated and an aliquot containing the number of cells required for the assay (200,000 cells for a 9 drug assay using alphaMEM culture medium) is withdrawn. […]

N.N.[Cl][Pt][Cl] [cisplatin]
IC90 (concentration of drug that killed or inhibited 90% of the growing population of cells), median of the distribution of responses: 0.3 µg/mL
